Measurements reported in US20030032834A1, “Aminoalcohol derivatives” (priority 2000, published 2003).
Counter-ions that a name gives are not always drawn.

Test system: increase in intravesical pressure induced by carbachol in anesthetized dog
Assay: Effect on the increase in intravesical pressure induced by carbachol in anesthetized dog
Format: in vivo
Details: 0.01 mg/kg injected intravenously 5 minutes before carbachol (1.8 μg/kg); anesthetized female Beagle dogs; N = 5; Before 6.2 ± 1.1; *P < 0.01 vs Before (ANOVA)
Method: Effect on the increase in intravesical pressure induced by carbachol in anesthetized dog
Female Beagle dogs weighing 8.0-15.0 kg were fasted for 24 hours and maintained under halothane anesthesia. A 12F Foley catheter was lubricated with water soluble jelly, inserted into the urethral orifice and advanced approximately 10 cm until the balloon tip was placed well inside the bladder. The balloon was then inflated with 5 ml of room air and catheter slowly withdrawn just part the first resistance that is felt at the bladder neck. Urine was completely drained out through the catheter, and 30 ml of biological saline was infused. The catheter was connected to pressure transducer, and intravesical pressure was continuously recorded. The test compound was injected intravenously at 5 minutes before the administration of carbachol (1.8 μg/kg).

COC(=O)Nc1ccc(C(CCNC[C@H](O)COc2ccccc2)c2ccc(NC(=O)OC)cc2)cc1 [Test Compound (1), (2S)-1-Phenoxy-3-[3,3-bis[4-(methoxycarbonylamino)-phenyl]propylamino]-2-propanol sulfate (2:1) (crystal Form A)]
Increase in intravesical pressure (mmHg): 4.9 ± 0.9* mmHg
